Measured values taken from ChEMBL document CHEMBL4043168, “The design and SAR of a novel series of 2-aminopyridine based LRRK2 inhibitors” (Bioorg Med Chem Lett, 2017).

What was measured:
[1] = molecular target: Serine/threonine-protein kinase Nek1 (Homo sapiens) (UniProt Q96PY6); experiment: Inhibition of NEK1 conserved Lys2 (DIKSQNIFLTK) in human PBMC at 0.1 uM
[2] = molecular target: T1, Serine/threonine-protein kinase 4 (Homo sapiens) (UniProt Q13043); experiment: Inhibition of MST1 conserved Lys1 ETGQIVAIKQVPVESDLQEIIK in human PBMC at 1 uM
T1 sequence (whole entry): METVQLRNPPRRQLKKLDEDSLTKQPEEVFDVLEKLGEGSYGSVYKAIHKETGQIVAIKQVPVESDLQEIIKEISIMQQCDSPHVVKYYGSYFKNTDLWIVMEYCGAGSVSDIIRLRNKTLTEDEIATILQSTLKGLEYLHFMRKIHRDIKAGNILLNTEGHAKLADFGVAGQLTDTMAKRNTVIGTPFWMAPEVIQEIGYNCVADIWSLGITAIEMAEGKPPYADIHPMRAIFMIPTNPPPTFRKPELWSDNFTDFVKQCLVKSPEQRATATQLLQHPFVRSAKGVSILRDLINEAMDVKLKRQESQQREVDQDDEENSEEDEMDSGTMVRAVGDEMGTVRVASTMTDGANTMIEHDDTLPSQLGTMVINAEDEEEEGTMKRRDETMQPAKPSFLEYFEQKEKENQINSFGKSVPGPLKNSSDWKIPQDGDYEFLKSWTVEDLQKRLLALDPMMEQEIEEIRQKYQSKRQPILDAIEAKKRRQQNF

[3] = molecular target: Interferon-induced, double-stranded RNA-activated protein kinase (Homo sapiens) (UniProt P19525); experiment: Inhibition of PKR activation Loop (IGDFGLVTSLKNDGKR) in human PBMC at 1 uM
[4] = molecular target: 5'-AMP-activated protein kinase catalytic subunit alpha-2 (Homo sapiens) (UniProt P54646); experiment: Inhibition of AMPKa2 labeling at conserved Lys2 (DLKPENVLLDAHMNAK) in human PBMC at 1 uM
5'-AMP-activated protein kinase catalytic subunit alpha-2 (Homo sapiens), sequence (P54646 whole entry, looked up): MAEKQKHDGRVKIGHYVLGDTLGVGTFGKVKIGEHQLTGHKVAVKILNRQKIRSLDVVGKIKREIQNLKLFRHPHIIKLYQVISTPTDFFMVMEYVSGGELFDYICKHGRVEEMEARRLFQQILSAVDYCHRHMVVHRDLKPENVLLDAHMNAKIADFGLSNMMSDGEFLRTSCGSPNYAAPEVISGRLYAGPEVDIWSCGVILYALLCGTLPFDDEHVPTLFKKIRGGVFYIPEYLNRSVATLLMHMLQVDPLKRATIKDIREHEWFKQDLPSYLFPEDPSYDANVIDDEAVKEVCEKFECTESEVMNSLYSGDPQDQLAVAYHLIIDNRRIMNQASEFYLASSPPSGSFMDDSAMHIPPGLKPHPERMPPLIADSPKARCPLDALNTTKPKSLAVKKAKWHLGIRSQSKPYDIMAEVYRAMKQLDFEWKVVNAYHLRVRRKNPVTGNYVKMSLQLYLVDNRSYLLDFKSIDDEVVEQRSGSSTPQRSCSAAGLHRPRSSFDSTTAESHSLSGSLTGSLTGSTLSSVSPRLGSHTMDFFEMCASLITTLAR

[5] = molecular target: Inhibitor of nuclear factor kappa-B kinase subunit alpha (Homo sapiens) (UniProt O15111); experiment: Inhibition of IKKa conserved Lys2 (DLKPENIVLQDVGGK) in human PBMC at 0.1 uM
Inhibitor of nuclear factor kappa-B kinase subunit alpha (Homo sapiens), sequence (O15111 whole entry): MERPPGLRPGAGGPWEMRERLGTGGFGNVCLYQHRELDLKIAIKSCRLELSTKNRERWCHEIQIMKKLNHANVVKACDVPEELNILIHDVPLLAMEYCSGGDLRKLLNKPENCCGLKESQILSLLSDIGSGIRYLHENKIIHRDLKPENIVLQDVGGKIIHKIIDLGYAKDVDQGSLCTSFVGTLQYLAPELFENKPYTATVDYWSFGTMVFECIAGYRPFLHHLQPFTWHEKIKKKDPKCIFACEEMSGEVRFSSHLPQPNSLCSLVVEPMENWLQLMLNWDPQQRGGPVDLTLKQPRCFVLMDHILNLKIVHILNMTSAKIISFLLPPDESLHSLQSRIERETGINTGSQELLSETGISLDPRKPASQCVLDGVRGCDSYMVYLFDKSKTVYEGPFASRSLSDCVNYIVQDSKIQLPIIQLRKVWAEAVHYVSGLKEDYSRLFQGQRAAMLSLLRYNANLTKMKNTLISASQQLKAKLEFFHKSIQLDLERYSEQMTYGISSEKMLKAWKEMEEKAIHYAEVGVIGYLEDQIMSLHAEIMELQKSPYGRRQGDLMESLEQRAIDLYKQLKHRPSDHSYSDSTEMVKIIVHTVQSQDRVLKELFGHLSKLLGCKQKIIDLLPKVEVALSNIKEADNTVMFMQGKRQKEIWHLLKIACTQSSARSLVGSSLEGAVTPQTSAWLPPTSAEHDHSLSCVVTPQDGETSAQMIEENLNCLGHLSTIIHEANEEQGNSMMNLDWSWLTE

[6] = molecular target: Serine/threonine-protein kinase 24 (Homo sapiens) (UniProt Q9Y6E0); experiment: Inhibition of MST3 conserved Lys2 (DIKAANVLLSEHGEVK) in human PBMC at 0.1 uM
Serine/threonine-protein kinase 24 (Homo sapiens), sequence (Q9Y6E0 whole entry, looked up): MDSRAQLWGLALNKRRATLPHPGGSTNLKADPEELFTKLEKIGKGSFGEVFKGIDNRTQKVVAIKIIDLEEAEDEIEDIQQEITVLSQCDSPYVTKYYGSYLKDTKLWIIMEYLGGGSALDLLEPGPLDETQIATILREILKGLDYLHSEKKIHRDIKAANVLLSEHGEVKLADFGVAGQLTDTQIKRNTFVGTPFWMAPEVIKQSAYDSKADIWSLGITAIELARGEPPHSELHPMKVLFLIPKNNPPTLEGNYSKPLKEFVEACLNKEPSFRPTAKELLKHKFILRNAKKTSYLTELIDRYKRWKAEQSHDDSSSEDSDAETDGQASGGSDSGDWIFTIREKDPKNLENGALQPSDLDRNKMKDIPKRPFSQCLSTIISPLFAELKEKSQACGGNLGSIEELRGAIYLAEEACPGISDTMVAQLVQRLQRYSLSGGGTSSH

[7] = molecular target: eIF-2-alpha kinase GCN2 (Homo sapiens) (UniProt Q9P2K8); experiment: Inhibition of GCN2 conserved Lys2 (DLKPVNIFLDSDDHVK) in human PBMC at 1 uM
eIF-2-alpha kinase GCN2 (Homo sapiens), sequence (Q9P2K8 whole entry): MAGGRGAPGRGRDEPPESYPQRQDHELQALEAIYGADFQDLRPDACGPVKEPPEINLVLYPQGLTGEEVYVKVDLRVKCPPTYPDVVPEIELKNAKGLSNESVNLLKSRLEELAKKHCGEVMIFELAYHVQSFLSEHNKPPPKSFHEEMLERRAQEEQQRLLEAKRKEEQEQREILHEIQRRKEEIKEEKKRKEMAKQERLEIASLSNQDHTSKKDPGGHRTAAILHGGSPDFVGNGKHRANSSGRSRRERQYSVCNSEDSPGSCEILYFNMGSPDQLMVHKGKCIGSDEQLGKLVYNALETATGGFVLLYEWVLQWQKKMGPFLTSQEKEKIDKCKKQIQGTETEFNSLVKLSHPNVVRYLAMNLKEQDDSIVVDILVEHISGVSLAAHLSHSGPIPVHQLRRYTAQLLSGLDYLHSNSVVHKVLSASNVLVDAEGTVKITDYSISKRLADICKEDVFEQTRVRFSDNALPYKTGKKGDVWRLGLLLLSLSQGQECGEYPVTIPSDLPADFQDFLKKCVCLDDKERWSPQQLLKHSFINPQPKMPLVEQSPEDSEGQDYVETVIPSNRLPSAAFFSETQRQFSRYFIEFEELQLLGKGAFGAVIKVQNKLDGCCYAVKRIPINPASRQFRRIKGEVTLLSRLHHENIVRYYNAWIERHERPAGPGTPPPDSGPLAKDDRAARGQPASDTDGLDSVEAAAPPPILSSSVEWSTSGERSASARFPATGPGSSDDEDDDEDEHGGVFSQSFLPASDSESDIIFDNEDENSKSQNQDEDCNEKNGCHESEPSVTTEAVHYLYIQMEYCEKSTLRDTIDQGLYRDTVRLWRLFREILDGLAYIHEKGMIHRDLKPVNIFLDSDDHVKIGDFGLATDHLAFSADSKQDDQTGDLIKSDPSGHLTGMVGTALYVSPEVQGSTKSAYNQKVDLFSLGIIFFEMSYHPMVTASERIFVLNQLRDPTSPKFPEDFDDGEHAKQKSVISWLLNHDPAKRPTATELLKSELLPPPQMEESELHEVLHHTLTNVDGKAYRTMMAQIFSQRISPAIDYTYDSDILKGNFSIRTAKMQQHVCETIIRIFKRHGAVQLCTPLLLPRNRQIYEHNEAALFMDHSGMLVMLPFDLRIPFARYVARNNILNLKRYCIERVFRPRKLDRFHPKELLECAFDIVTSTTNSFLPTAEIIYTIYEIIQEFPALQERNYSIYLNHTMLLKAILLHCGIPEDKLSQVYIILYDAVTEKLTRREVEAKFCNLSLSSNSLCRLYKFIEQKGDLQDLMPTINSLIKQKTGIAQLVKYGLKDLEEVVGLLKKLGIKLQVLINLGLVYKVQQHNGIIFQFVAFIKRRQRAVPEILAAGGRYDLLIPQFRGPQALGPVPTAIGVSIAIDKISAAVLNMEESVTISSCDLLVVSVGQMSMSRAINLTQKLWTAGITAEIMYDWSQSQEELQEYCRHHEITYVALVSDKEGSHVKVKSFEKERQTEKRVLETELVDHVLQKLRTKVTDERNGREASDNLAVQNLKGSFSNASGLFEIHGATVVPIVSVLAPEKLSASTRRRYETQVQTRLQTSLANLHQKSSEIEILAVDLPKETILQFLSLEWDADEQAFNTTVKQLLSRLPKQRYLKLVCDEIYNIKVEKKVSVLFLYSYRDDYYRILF

[8] = molecular target: Mitogen-activated protein kinase kinase kinase 4 (Homo sapiens) (UniProt Q9Y6R4); experiment: Inhibition of MAP3K4 conserved Lys2 (DIKGANIFLTSSGLIK) in human PBMC at 1 uM
Mitogen-activated protein kinase kinase kinase 4 (Homo sapiens), sequence (Q9Y6R4 whole entry): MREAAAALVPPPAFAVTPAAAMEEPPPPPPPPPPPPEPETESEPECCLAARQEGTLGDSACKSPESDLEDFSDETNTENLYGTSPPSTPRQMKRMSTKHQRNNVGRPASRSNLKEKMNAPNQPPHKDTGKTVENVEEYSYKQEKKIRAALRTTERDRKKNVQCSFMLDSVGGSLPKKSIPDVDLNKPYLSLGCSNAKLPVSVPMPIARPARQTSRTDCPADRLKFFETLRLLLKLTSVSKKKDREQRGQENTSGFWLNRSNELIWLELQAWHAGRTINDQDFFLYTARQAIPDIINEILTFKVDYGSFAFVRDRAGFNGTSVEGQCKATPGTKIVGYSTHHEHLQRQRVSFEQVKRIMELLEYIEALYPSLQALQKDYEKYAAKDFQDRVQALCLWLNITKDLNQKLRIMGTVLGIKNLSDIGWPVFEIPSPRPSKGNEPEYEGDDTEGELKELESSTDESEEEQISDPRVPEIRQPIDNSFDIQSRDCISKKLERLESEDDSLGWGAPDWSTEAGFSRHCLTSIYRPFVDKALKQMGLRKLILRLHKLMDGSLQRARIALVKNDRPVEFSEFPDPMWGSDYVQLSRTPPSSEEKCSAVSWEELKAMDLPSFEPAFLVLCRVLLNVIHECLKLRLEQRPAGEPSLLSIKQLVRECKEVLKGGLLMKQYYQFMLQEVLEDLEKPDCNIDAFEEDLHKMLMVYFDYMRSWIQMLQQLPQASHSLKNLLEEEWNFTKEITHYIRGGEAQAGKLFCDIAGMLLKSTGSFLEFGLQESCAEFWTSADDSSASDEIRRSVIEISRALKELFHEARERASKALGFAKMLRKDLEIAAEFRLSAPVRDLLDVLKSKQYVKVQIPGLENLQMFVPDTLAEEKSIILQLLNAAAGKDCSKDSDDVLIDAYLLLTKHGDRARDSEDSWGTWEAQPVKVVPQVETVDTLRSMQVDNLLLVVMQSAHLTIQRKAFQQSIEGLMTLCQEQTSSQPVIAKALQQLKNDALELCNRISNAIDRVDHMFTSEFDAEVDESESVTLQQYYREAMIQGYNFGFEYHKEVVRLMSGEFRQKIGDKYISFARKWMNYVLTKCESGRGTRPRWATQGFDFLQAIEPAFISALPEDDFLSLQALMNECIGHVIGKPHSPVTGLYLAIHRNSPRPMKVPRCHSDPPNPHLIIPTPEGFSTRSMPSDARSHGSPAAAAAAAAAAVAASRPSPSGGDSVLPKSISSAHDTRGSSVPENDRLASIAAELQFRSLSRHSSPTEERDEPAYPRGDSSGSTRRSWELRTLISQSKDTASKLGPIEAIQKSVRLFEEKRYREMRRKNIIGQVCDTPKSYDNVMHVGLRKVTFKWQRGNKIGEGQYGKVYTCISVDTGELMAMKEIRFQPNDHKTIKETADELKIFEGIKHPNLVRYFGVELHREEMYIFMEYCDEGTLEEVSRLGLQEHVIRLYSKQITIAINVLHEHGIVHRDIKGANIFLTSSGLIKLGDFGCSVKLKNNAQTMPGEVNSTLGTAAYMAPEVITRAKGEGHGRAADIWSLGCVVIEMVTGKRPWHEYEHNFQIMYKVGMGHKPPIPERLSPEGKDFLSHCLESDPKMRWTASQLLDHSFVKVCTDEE

## CC(C)n1cc(-c2cc(-c3ccc(CN4CCOCC4)cc3)cnc2N)nn1
[1]
  inhibition: 5.5%
[2]
  inhibition: -9.5%
[3]
  inhibition: -3.7%
[4]
  inhibition: 17.5%
[5]
  inhibition: -7.4%
[6]
  inhibition: 11%
[7]
  inhibition: -2%
[8]
  inhibition: -0.5%
